# Test results: the METLIN SMRT retention time set (Domingo-Almenara et al. 2019)
# Assay: gradient 5% acetonitrile 3 min, to 50% in 2 min, to 85% in 15 min, held 3 min, 100 µL/min
# Details: column: Zorbax Extend-C18 2.1 x 50 mm; eluents: water / acetonitrile, 0.1% formic acid
# Summary of the method: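 Values are retention times taken from adduct peaks that software picked and an analyst inspected. The pure standards were run as mixtures of ~100 molecules on HPLC linked to a quadrupole time-of-flight mass spectrometer, in positive and negative ionization mode. A Zorbax Extend-C18 column (2.1 × 50 mm, 1.8 μm) was used at 100 μL/min with water and acetonitrile, each including 0.1% formic acid.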
row,Structure (SMILES),RP-LC retention time
1,COc1cc(Cl)c(C)cc1NC(=O)Cc1nnc(-c2ccc3ncccc3c2)o1,848 s
2,O=C(CSc1ccc(N2CCCC(C(=O)NC3CC3)C2)nn1)Nc1ccc(F)cc1Cl (stereo unspecified),675 s
3,COc1ccc(CCN2CCC(CNS(=O)(=O)c3cc(-c4cc(C)no4)cs3)CC2)cc1,718 s
4,CCOc1ccc(-n2c(=O)c3sccc3n(Cc3nc(-c4cccc(OCC)c4)no3)c2=O)cc1,1080 s
5,O=C(C1CCCN(c2nc3cccnc3s2)C1)N1CCN(c2cccc(Cl)c2)CC1 (stereo unspecified),1010 s
6,Cc1cc(S(=O)(=O)N2CCc3nc(-c4ccccc4)ncc3C2)ccc1F,1090 s
7,CCc1noc(NC(C)=O)c1-c1ccc(C)c(S(=O)(=O)Nc2cccc(C#N)c2)c1,776 s
8,O=C(O)CC1(CC(=O)Nc2nc(-c3cccc4ccccc34)cs2)CCCC1,1040 s
9,O=C(Nc1cc(-c2ccccn2)no1)c1cccc(C(F)(F)F)c1,916 s
10,COc1ccc(NC(=O)CSc2ccc(N3CCCC(C(=O)NC4CC4)C3)nn2)cc1OC (stereo unspecified),596 s
11,CCCn1cc(CCNC(=O)c2ccccc2C)c2cccnc21,748 s
12,COc1ccc(-c2csc(N3CCN(c4ccc([N+](=O)[O-])c(-n5nc(C)cc5C)c4)CC3)n2)cc1,1150 s
13,COCCCNS(=O)(=O)c1cc(-c2[nH]ncc2C(=O)N2CCCC2)oc1C,623 s
14,CC(C)CN(CC(C)C)c1nc(-c2ccc(C(C)(C)C)cc2)nc2ccccc12,1240 s
15,CNC(=O)c1cc(Cc2ccc3nc(Nc4cccc(C(F)(F)F)c4)[nH]c3c2)ccn1,680 s
16,CCc1ccc(NC(=O)Cn2nc3c(N4CCSCC4)nccn3c2=O)cc1,888 s
17,COc1cccc(-c2noc(C3CCCN3C(=O)Nc3ccc4c(c3)OCO4)n2)c1 (stereo unspecified),896 s
18,CCn1cc(C(=O)Nc2ccc(Br)cc2)c2nn(-c3ccccc3)c(=O)c-2c1,1090 s
19,O=C(NCc1ccccc1)c1cn(-c2ccc(NC(=O)C3CC3)cn2)cn1,725 s

row,Structure (SMILES),RP-LC retention time
1,COCC(=O)N1CCC(Oc2nccnc2N(C)C)C1 (stereo unspecified),598 s
2,Cc1ccc(C(=O)N2CCC(C)CC2)cc1[N+](=O)[O-],830 s
3,COc1ccc(Cc2nc3nccc(-c4cccnc4)n3n2)cc1,692 s
4,CSc1ccc(-c2noc(Cc3nnc(-c4ccc(Cl)cc4)o3)n2)cc1,1120 s
5,CN1C(=O)c2[nH]nc(-c3ccccc3)c2C1c1cccnc1 (stereo unspecified),609 s
6,Cc1ccccc1CNC(=O)c1cn(-c2ccc(-c3nc(C(C)(C)C)no3)cn2)cn1,1100 s
7,Cc1nn(-c2ccc(F)cc2)c(C)c1S(=O)(=O)N1CCC(C(=O)N2CCCC2)CC1,790 s
8,CC1Oc2ccccc2N(Cc2nc(-c3ccc4c(c3)OCO4)no2)C1=O (stereo unspecified),1010 s
9,COC(=O)CSc1ccc(NC(C)=O)nn1,577 s
10,O=C(Cn1nc2c(Oc3ccc(F)cc3)nccn2c1=O)NCc1ccccc1,770 s
11,CCOC(=O)C1C(=O)C=C(c2cccc(NS(C)(=O)=O)c2)CC1c1cccs1 (stereo unspecified),822 s
12,O=C(C1CCN(c2ncnc3c2oc2ccccc23)CC1)N1CCN(c2ccccc2F)CC1,832 s
13,Cn1cc(C(=O)Nc2ccc(C(F)(F)F)cc2)c2cccnc21,909 s
14,CCN1C(=O)c2cc(S(=O)(=O)Nc3cc(F)ccc3C)ccc2Oc2cccnc21,1030 s
15,O=C(c1cc2ccccc2o1)N1CCCC(c2nnc(C(F)(F)F)o2)C1 (stereo unspecified),872 s
16,CN(C)C[C@@H]1CN(S(C)(=O)=O)C[C@H]1NC(=O)c1ccsc1,569 s
17,CN(C)c1cccc(C(=O)N2CCCN(c3cc(-c4ccc5c(c4)OCO5)[nH]n3)CC2)c1,680 s
18,CCOc1cc(C(=O)Nc2nnc(-c3ccc(Cl)s3)o2)cc(OCC)c1OCC,986 s

# Now from value to molecule:
row,RP-LC retention time,Structure (SMILES)
1,621 s,CNC(=O)C1CCCN(c2nc3ncn(CC(=O)NCc4cccc(OC)c4)c(=O)c3s2)C1 (stereo unspecified)
2,664 s,CCc1nncn1C1CCN(S(=O)(=O)c2cc(OC)ccc2OC)CC1
3,734 s,O=C(NC1CCCc2ccccc21)C1CCCN(c2ccnc(-c3ccc(F)cc3)n2)C1 (stereo unspecified)
4,630 s,O=C(NCc1ccc2c(c1)OCO2)c1ccc2ncnc(N3CCCC3)c2c1
5,779 s,CCc1ccc(NC(=O)c2sc3nc(C)nc(N4CCN(c5ccccn5)CC4)c3c2C)cc1
6,704 s,COC(=O)c1cnn(-c2ccc(C)cc2)c1N
7,674 s,O=C(O)C1CCN(c2nc3ccc(-c4cncnc4)nc3s2)CC1
8,994 s,Cc1nc2cc(-c3noc(COc4ccc(F)cc4)n3)ccc2o1
9,941 s,CCc1nc2c(NC(=O)c3ccc(Cl)s3)cccn2n1
10,844 s,O=S(=O)(c1ccc(F)cc1F)N1CCN(Cc2cccc(F)c2)C2(CCOCC2)C1
11,860 s,O=C(Cc1cccc2ccccc12)NCCOc1ccc(F)cc1
12,635 s,CC(=O)N1CCCC1c1nc(C2CN(S(=O)(=O)C(C)C)C2)no1 (stereo unspecified)
13,751 s,O=c1n(Cc2ccc(F)cc2Cl)nc2n1CCCCC2
14,757 s,Cc1ccn2c(NC(=O)c3ccc(Cl)c([N+](=O)[O-])c3)c(-c3ccc(F)cc3)nc2c1
15,567 s,COc1cccc2c(C)nc(NC3=NCN(Cc4cccnc4)CN3)nc12
16,919 s,O=C([C@@H]1C[C@H](F)CN1S(=O)(=O)Cc1ccccc1F)N1CCc2ccccc2C1
17,667 s,Cc1cc(C(=O)N2CCC(c3cc(N)on3)CC2)c(C)o1
18,1050 s,COc1ccc(C2CC(=O)c3c([nH]c(C(=O)OC4CCCC4C)c3C)C2)cc1OC (stereo unspecified)
19,828 s,CCOC(=O)c1ccc2nc(NC(=O)c3ccn(C)n3)sc2c1
20,824 s,Cc1ccc(CNC(=O)c2ccc(-c3ccsc3)nc2)o1
21,870 s,O=c1c2ccccc2ncn1-c1ccc(Cl)cc1
22,1140 s,COc1ccc2c(c1)CCc1sc(NC(=O)c3ccc(F)cc3)nc1-2
23,863 s,CN(CC1(C)CCOCC1)C(=O)Cc1c(F)cccc1Cl
24,862 s,Cc1ccccc1NC(=O)C(=O)c1ccc[nH]1
25,1090 s,CC(C)c1ccc(-c2ccnc3c(C(=O)NCc4ccco4)cnn23)cc1
26,729 s,COc1ccc(-c2cc(C(N)=O)c(C)n2C)cc1
27,592 s,CCCN(Cc1ccc(OC)c(OC)c1)Cc1cc(=O)n2ccccc2n1
28,643 s,Cc1ccc2nc(NC(=O)CSc3nnc(Cc4c(C)[nH]c(=O)[nH]c4=O)o3)sc2c1
29,1040 s,Cc1cc2nn(CC(=O)Nc3cc(F)cc(F)c3)c(=O)n2c(Nc2ccccc2)n1
